T1: RNase A (Bos taurus, UniProt P61823)
T1 sequence (P61823 27-150): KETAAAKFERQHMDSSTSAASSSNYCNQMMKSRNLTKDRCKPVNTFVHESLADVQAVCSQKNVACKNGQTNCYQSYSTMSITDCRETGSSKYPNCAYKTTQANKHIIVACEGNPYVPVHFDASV

B1: DRRRD RNase 1: RI-evasive cytotoxic variant of RNase 1 (R39D/N67R/N88R/G89R/R91D) (protein, UniProt P07998 29-156, looked up, variant R39D N67R N88R G89R R91D)
Ribonuclease pancreatic: KESRAKKFQRQHMDSDSSPSSSSTYCNQMMRRRNMTQGDCKPVNTFVHEPLVDVQNVCFQEKVTCKRGQGNCYKSNSSMHITDCRLTRRSDYPNCAYRTSPKERHIIVACEGSPYVPVHFDASVEDST
B2: RNase A (G88R): RI-evasive cytotoxic G88R variant of RNase A (protein, UniProt P61823 27-150, looked up, variant G88R)
Ribonuclease pancreatic: KETAAAKFERQHMDSSTSAASSSNYCNQMMKSRNLTKDRCKPVNTFVHESLADVQAVCSQKNVACKNGQTNCYQSYSTMSITDCRETRSSKYPNCAYKTTQANKHIIVACEGNPYVPVHFDASV

Assays:
RNase A = molecular target: T1, RNase A; experiment: Glycan array screening for RNase A ligands; assay type: binding, cow; settings: printed glycan array, Figure 1
human leukemia cells = settings: read-out: IC50 (cytotoxicity), ref [6],[15]; cited from earlier work

Row | Molecule | binding of RNase A to glycan in the array (in words) (RNase A) | IC50 (human leukemia cells)
1 | CC(=O)NC1C(OC2C(O)C(CO)OC(OC3C(CO)OC(OC4C(CO)OC(O)C(O)C4O)C(O)C3O)C2O)OC(CO)C(O)C1OC1OC(CO)C(O)C(O)C1O (stereo not shown) [glycan 127, Galβ1–3GalNAcβ1–3Galα1–4Galβ1–4Glc] | little affinity | 
2 | GalNAcβ1–3Galα1–4Galβ1–4GlcNAc [glycan 90] | did bind | 
3 | B1 |  | 10.8 µM
4 | B2 |  | 6.2 µM

From article PMC4571170 (ACS Central Science, 2015)
